Results from the NIST ThermoML archive (doi:10.1016/j.jct.2019.02.010).

Experiments:
[1] = xn = mol fraction of the nth substance listed; details: for viscosity / mass density: 101.3 kPa, Liquid; for viscosity: Falling or rolling sphere viscometry; for mass density: Vibrating tube method; for surface tension liquid-gas: 298.15 K, Ring tensiometer
[2] = 101.33 kPa; for mass density: Vibrating tube method; for viscosity: Falling or rolling sphere viscometry

C[N+](C)(C)CCO.[Cl-] [choline chloride] + OCCO
[1], x1 = 0.334
Details	mass density [kg/m3]	viscosity [mPa·s]
293.15 K	1119.5	58.81
303.15 K	1113.9	38.9
313.15 K	1108.1	27.04
323.15 K	1102.5	19.74
333.15 K	1096.9	14.69

Details	surface tension liquid-gas [mN/m]
[1], x1 = 0.334	45.66

CC(=O)CCC(=O)O [4-oxopentanoic acid] + C[N+](C)(C)CCO.[Cl-]
[1], x2 = 0.333
Details	mass density [kg/m3]	viscosity [mPa·s]
293.15 K	1141.9	362.08
303.15 K	1135.2	183.72
313.15 K	1128.5	103.46
323.15 K	1121.9	62.8
333.15 K	1115.3	39.59

Details	surface tension liquid-gas [mN/m]
[1], x2 = 0.333	39.95

C[N+](C)(C)CCO.[Cl-] [choline chloride] + Oc1ccccc1
[1], x1 = 0.333
Details	mass density [kg/m3]	viscosity [mPa·s]
293.15 K	1099.4	129.98
303.15 K	1093.4	74
313.15 K	1087.4	44.33
323.15 K	1081.5	30.23
333.15 K	1075.6	21.5

Details	surface tension liquid-gas [mN/m]
[1], x1 = 0.333	35.46

CC(=O)CCC(=O)O [4-oxopentanoic acid]
[2], Metastable liquid
Details	mass density [kg/m3]
293.15 K	1140.1
303.15 K	1131.6
313.15 K	1123
323.15 K	1114.5
333.15 K	1105.9
343.15 K	1097.4

CCCCO [butan-1-ol]
[2], Liquid
Details	mass density [kg/m3]	viscosity [mPa·s]
293.15 K	809.5	2.95
303.15 K	801.9	2.28
313.15 K	794.1	1.79
323.15 K	786.2	1.42
333.15 K	778.1	1.15
